Read-outs that look alike come from different tables or passages of the source.
Legend:
[1] = system: β2 integrins on human neutrophils; experiment: flow cytometry of β2 integrin activation and exocytosis (mAb24, KIM127, TS1/18) after IL-8; type: cell-based; settings: for inhibition at 10 µM: Homo sapiens, Neutrophil
Procedure: To monitor the dynamics of β2 integrin activation, 400 μL of 2.5×10^5 cells·mL^−1 neutrophils were assessed by an LSRII analyzer (BD Biosciences, San Jose, CA) for 10 s. After adding 0.5 μg·mL^−1 AF488-conjugated mAb24 and DL550-conjugated KIM127 (final concentration), cells were put back into the analyzer for another 5 minutes. Then, after adding 1 μg·mL^−1 IL-8, cells were put back into the analyzer for another 10 minutes. The curves showing the dynamics of integrin activation (FIGS. 2A, 2B) were generated by FlowJo software (version 10.6). The antibody specificities were validated in our previous study using β2 integrin knockout cells and β2-integrin-activation-deficient talin-1 knockout cells. Compensations were performed before all experiments.
To quantify the percentage of mAb24 and KIM127 epitopes and assess inhibition of β2 integrin exocytosis, pan-CD18 […] TS1/18, which has the same isotype (mouse IgG1) as mAb24 and KIM127, was used. […] Neutrophils were mixed with unconjugated mAb24 (1 μg·mL^−1), KIM127 (1 μg·mL^−1), […] (1 μg·mL^−1), or mouse IgG1 isotype control (1 μg·mL^−1), and incubated with 1 μg·mL^−1 IL-8 at RT for 10 min. After incubation, neutrophils were fixed by 1% PFA at 4° C. for 10 min. After two washes with PBS, cells were incubated with APC-conjugated rat anti-mouse IgG1 secondary mAb (1 μg·mL^−1) at RT for 10 min. After two washes with PBS, cell fluorescence was assessed with an LSRII (BD Biosciences, San Jose, CA) and analyzed with FlowJo software (version 10.6). The quantifications of mAb24, KIM127, TS1/18, and isotype mean fluorescence intensities (MFI) (FIGS. 2C-2E) were analyzed by FlowJo software (version 10.6) and obtained from six replicates. MFI of isotype controls was subtracted as background signal. Since mAb24, KIM127, and TS1/18 are all IgG1 isotypes and we used the same secondary antibody, the percentage of high-affinity and extended β2 integrins (FIGS. 2F and 2G) can be calculated by dividing the MFI of mAb24 and KIM127 by the MFI of TS1/18.

[2] = system: human neutrophils; experiment: neutrophil viability by flow cytometry (Ghost Dye Blue 516); type: cell-based; settings: 100 μM Nexinhib20, one hour at room temperature
Procedure: After washes, neutrophils were incubated with Ghost Dye Blue 516 at RT for 15 minutes. After washes, cell fluorescence was assessed with an LSRII (BD Biosciences, San Jose, CA) and analyzed with FlowJo software (version 10.6).

[3] = system: mouse myocardial I/R injury; experiment: infarct size (TTC-phthalo-blue staining) and left ventricle echocardiogram in mouse myocardial I/R injury; type: in vivo
Procedure: Mice were subjected to 35 minutes of myocardial ischemia and 1 (for multi-photon microscopy and flow cytometry) or 22-26 (for TTC-phthalo-blue staining) hours of reperfusion. […] Briefly, anesthesia was induced with an intraperitoneal injection of ketamine hydrochloride (125 mg·kg^−1) and xylazine (12.5 mg·kg^−1). Mice were intubated with 24G×3/4″ Surflo i.v. catheter and ventilated using MiniVent 845 (Harvard Apparatus).
Surgeries were performed under an SMZ168 Stereo Zoom microscope (Motic). Ischemia was achieved by ligating the left anterior descending coronary artery (LAD) using a 6-0 silk suture with a section of PE-10 tubing placed over the LAD, 1 mm from the tip of the normally positioned left atrium. One important problem in drug administration is water solubility, which greatly affects drug absorption and bioavailability. […] In clinics, the primary percutaneous coronary intervention aims to be performed less than 90 min (within 60 min is preferable) after the patient arrives. […] After occlusion for 35 minutes, reperfusion was initiated by releasing the ligature and removing the PE-10 tubing. The chest wall was closed, the animal extubated, and body temperature was maintained by use of a 37° C. warm pad. Hearts were harvested 1 or 22-26 hours later. The loosened suture was left in place and then retied for the purpose of evaluating the ischemic area. […]
To assess the ischemic area at risk after 22-26 hours of reperfusion, hearts were excised, infused with PBS and freshly prepared 10% phthalo-blue (PBS with 0.75% tween 20) through the aorta and coronary arteries in a retrograde fashion, frozen at −20° C. for 10 minutes, and sliced into five to six 1 mm cross-sections with the aid of a pre-freeze acrylic matrix (ZIVIC Labs). […] The infarct area (white), the area at risk (red and white), and the total left ventricle area from each section were measured using ZEN v3.1 (Zeiss). Ratios of infarct area/area at risk (FIG. 5B) and of area at risk/left ventricle (FIG. 5C) were calculated and expressed as percentages.
To quantify left ventricle function, we performed echocardiograms on mice before and seven days after myocardial I/R injury. […] Echocardiography loops were recorded in B and two-dimensional-targeted M modes in longitudinal and short-axis views on a Vevo 3100 High-Resolution Imaging System equipped with an MX550D transducer (VisualSonics, Toronto, ON, Canada). Mice were fixed on a heated table and heart rate was monitored during the procedure. […] Left ventricular ejection fraction was determined by left ventricle tracing relating the end-systolic left ventricle area as the minimal left ventricle cross-sectional area to the end-diastolic left ventricle area as the maximum left ventricle cross-sectional area in long-axis views. […]

[4] = system: LPS-induced systemic inflammation / acute lung injury; settings: reported, cited from earlier work

CC(C)(C)C(=O)/C(=C\c1cccc([N+](=O)[O-])c1)n1cncn1 [Nexinhib20, 4,4-dimethyl-1-(3-nitrophenyl)-2-(1H-1,2,4-triazol-1-yl)-1-penten-3-one]
β2 integrin exocytosis (total CD18 surface expression, TS1/18) ([1]; 10 μM, RT 1 hour, 10 min 1 μg·mL^−1 IL-8): inhibited significantly
percentage of high-affinity β2 integrins (mAb24 MFI/TS1/18 MFI) ([1]; 10 μM, 10 min after IL-8): reduced the percentage of high-affinity
inhibition at 10 µM ([1]; RT 1 hour, 10 min 1 μg·mL^−1 IL-8, read-out: inhibition of IL-8-induced elevation of KIM127 (extended β2 integrins)): ~20%
inhibition at 10 µM ([1]; RT 1 hour, 10 min 1 μg·mL^−1 IL-8, read-out: inhibition of IL-8-induced elevation of mAb24 (high-affinity β2 integrins)): ~75%
neutrophil viability [2]: ~100%
infarct area percentage (infarct area/area at risk) ([3]; I/R 35 min/24 hours, i.p. 30 minutes before reperfusion, vehicle about 50%): about 40%
change of ejection fraction after myocardial I/R injury ([3]; echocardiogram before and 7 days after I/R, vehicle reduced by about 25%): no significant reduction
change of fractional shortening after myocardial I/R injury ([3]; echocardiogram before and 7 days after I/R, vehicle reduced by about 30%): no significant reduction
reduction of infarct size ([3]; mouse myocardial I/R injury): about 20%
recruitment of neutrophils to the liver and kidney ([4]; LPS-induced systemic inflammation model): inhibit recruitment of neutrophils
recruitment of neutrophils to lung lumen and parenchyma ([4]; acute LPS-induced lung injury mouse model): inhibit recruitment of neutrophils
